Laboratory results from article PMC7944940 (Dalton transactions (Cambridge, England : 2003), 2021).

Molecular target: PAN endonuclease (Influenza A virus, UniProt C3W5S0)
Assay: FRET-based enzymatic assay of PAN endonuclease inhibition
Assay type: biochemical

| Molecule | enzymatic inhibition upon light irradiation | IC50 (read-out: IC50 (dark)) |
| --- | --- | --- |
| [Ru(2,2´-bipyridine)2(pyridine)2][Cl]2 [Compound 9] | negligible | – |
| [Cl][Ru][Cl].c1ccc(-c2ccccn2)nc1.c1ccc(-c2ccccn2)nc1 [Compound 2, Ru(2,2´-bipyridine)2(Cl)2] | – | > 100 µM |
